Results on 2 compounds are retold here after paper PMC8330190 (Signal Transduction and Targeted Therapy, 2021).

In this assay the test system is SARS-CoV-2 HR1 target mimic peptide HR1P. The class given is binding.

Structures are written as SMILES.

`CC[C@H](C)[C@H](NC(=O)[C@H](Cc1ccc(O)cc1)NC(=O)[C@H](CO)NC(=O)[C@H](CCC(=O)O)NC(=O)[C@H](CC(N)=O)NC(=O)[C@H](CC(C)C)NC(=O)[C@H](C)NC(=O)[C@H](CCCCN)NC(=O)[C@@H](NC(=O)[C@@H](NC(=O)[C@H](CCC(N)=O)NC(=O)[C@H](CCC(N)=O)NC(=O)[C@H](CC(C)C)NC(=O)[C@H](CO)NC(=O)[C@H](CC(C)C)NC(=O)[C@H](CCSC)NC(=O)[C@H](CCC(=O)O)NC(=O)[C@H](Cc1ccc(O)cc1)NC(=O)[C@@H](NC(=O)[C@H](CC(C)C)NC(=O)[C@H](CC(=O)O)NC(=O)[C@H](CC(C)C)NC(=O)[C@H](CC(C)C)NC(=O)[C@@H](NC(=O)[C@@H](NC(=O)[C@H](CC(N)=O)NC(=O)[C@@H](NC(=O)[C@H](CCC(N)=O)NC(=O)[C@@H](NC(=O)[C@H](CC(C)C)NC(=O)[C@H](CO)NC(C)=O)[C@@H](C)O)[C@@H](C)CC)[C@@H](C)O)[C@@H](C)O)[C@@H](C)O)C(C)C)C(C)C)C(=O)N[C@@H](CC(=O)O)C(=O)N[C@@H](CC(C)C)C(=O)N[C@@H](CCCCN)C(=O)N[C@@H](CCC(=O)O)C(=O)N[C@@H](CC(C)C)C(=O)NCCOCCOCCOCCOCCOCCOCCOCCOCCC(=O)N[C@@H](CCCCNC(=O)CCC(=O)O[C@H]1CC[C@@]2(C)C(=CC[C@H]3[C@@H]4CC[C@H]([C@H](C)CCCC(C)C)[C@@]4(C)CC[C@@H]32)C1)C(N)=O` [MERS-LP]: the “Tm of complex with HR1P (binding stability)” value came to 47 °C.
In the case of `CC[C@H](C)[C@H](NC(=O)[C@H](C)NC(=O)[C@H](CCC(=O)O)NC(=O)[C@H](CCC(N)=O)NC(=O)[C@H](CC(C)C)NC(=O)[C@H](CCCNC(=N)N)NC(=O)[C@H](CC(N)=O)NC(=O)[C@H](CCSC)NC(=O)[C@H](CCC(=O)O)NC(=O)[C@H](CC(=O)O)NC(=O)[C@H](CCC(N)=O)NC(=O)[C@H](CC(C)C)NC(=O)[C@H](CC(=O)O)NC(=O)[C@H](CC(C)C)NC(=O)[C@H](Cc1ccccc1)NC(=O)[C@@H](NC(=O)[C@@H](NC(=O)[C@H](CC(N)=O)NC(=O)[C@@H](NC(=O)[C@H](Cc1ccc(O)cc1)NC(=O)[C@H](CC(=O)O)NC(=O)[C@H](CC(C)C)NC(=O)[C@H](CO)NC(C)=O)[C@@H](C)CC)C(C)C)[C@@H](C)O)C(=O)N[C@@H](CCCCN)C(=O)N[C@H](C(=O)N[C@@H](CC(C)C)C(=O)N[C@@H](CC(N)=O)C(=O)N[C@@H](CCC(N)=O)C(=O)N[C@@H](CO)C(=O)N[C@@H](Cc1ccc(O)cc1)C(=O)N[C@H](C(=O)N[C@@H](CC(N)=O)C(=O)N[C@@H](CC(C)C)C(=O)N[C@@H](CCCCN)C(=O)N[C@@H](CC(=O)O)C(=O)N[C@H](C(=O)NCCOCCOCCOCCOCCOCCOCCOCCOCCC(=O)N[C@@H](CCCCNC(=O)CCC(=O)O[C@H]1CC[C@@]2(C)C(=CC[C@H]3[C@@H]4CC[C@H]([C@H](C)CCCC(C)C)[C@@]4(C)CC[C@@H]32)C1)C(N)=O)[C@@H](C)CC)[C@@H](C)CC)C(C)C` [OC43-LP] it was 63 °C.
